# In article PMC10396310, “A succinate/SUCNR1-brush cell defense program in the tracheal epithelium” (Science Advances, 2023):
# Biological target: T1, succinate receptor 1 (SUCNR1; GPR91) (Mus musculus, UniProt Q99MT6)
# T1 construct: native receptor in tracheal TRPM5+ brush cells (ex vivo whole mount)
# T1 sequence (Q99MT6 1-317): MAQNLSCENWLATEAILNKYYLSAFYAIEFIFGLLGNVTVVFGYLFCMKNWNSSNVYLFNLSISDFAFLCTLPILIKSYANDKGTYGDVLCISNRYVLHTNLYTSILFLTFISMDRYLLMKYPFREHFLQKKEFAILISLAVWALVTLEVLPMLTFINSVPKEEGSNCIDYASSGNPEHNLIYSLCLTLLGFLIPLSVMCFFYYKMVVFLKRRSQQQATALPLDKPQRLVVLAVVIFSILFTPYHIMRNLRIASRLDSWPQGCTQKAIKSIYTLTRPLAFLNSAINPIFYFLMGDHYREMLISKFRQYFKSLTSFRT
# Assay: Ca2+ imaging (GCaMP6f) concentration-response in brush cells; Ca2+ wave lost in Sucnr1-/- mice
structure (smiles),measurement,value
O=C(O)CCC(=O)O [succinate],EC50,335 ± 5 µM
